# Measured values reported in US9376418B2, “Substituted pyridine spleen tyrosine kinase (SYK) inhibitors” (Merck Sharp & Dohme Corp., priority 2012, dated 2016).
# Biological target: T1, recombinant human GST-SYK (Homo sapiens, UniProt P43405)
# T1 construct: purchased Carna Biosciences 08-176
# Experiment: Homogeneous Time-Resolved Fluorescence (HTRF) assay for the recombinant human Syk enzyme
# Type: biochemical
# Settings: HTRF assay, recombinant human GST-SYK; IC50 given as class symbols; read-out: rhSYK Activity
# In short: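 GST-hSYK ([…]) was preincubated with inhibitor (0.1% DMSO final) for 10 minutes at room temperature in 15 mM Tris-HCl pH 7.5, 0.01% tween 20, 2 mM DTT. Biotinylated peptide (250 nM), 5 mM magnesium and 25 μM ATP started a 45-minute room-temperature reaction, read by time-resolved fluorescence.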
row,Structure (SMILES),IC50 [nM]
1,"Cc1cc(Nc2nccc(C(F)(F)F)n2)cc(-c2ccc(N(CCC#N)CC(=O)O)nc2)c1 [Example 7.75, N-(2-cyanoethyl)-N-[5-(3-methyl-5-{[4-(trifluoromethyl)pyrimidin-2-yl]amino}phenyl)pyridin-2-yl]glycine]",< 100
2,"COCC(Nc1ccc(-c2cc(C)cc(Nc3nccc(C(F)(F)F)n3)c2)cn1)C(=O)O (stereo not shown) [Example 7.76, O-methyl-N-[5-(3-methyl-5-{[4-(trifluoromethyl)pyrimidin-2-yl]amino}phenyl)pyridin-2-yl]serine]",< 100
3,"Cc1cc(Nc2nccc(C(F)(F)F)n2)cc(-c2ccc(NC3(C(=O)O)CCC3)nc2)c1 [Example 7.78, 1-{[5-(3-methyl-5-{[4-(trifluoromethyl)pyrimidin-2-yl]amino}phenyl)pyridin-2-yl]amino}cyclobutanecarboxylic acid]",< 100
4,"Cc1cc(Nc2nccc(C(F)(F)F)n2)cc(-c2ccc(N[C@H](Cc3csc4ccccc34)C(=O)O)nc2)c1 [Example 7.79, 3-(1-benzothiophen-3-yl)-N-[5-(3-methyl-5-{[4-(trifluoromethyl)pyrimidin-2-yl]amino}phenyl)pyridin-2-yl]-D-alanine]",< 100
5,"Cc1cc(Nc2nccc(C(F)(F)F)n2)cc(-c2ccc(NC3(C(=O)O)CCCC3)nc2)c1 [Example 7.80, 1-{[5-(3-methyl-5-{[4-(trifluoromethyl)pyrimidin-2-yl]amino}phenyl)pyridin-2-yl]amino}cyclopentanecarboxylic acid]",< 100
6,"Cc1cc(Nc2nccc(C(F)(F)F)n2)cc(-c2ccc(NC3(C(=O)O)CC3)nc2)c1 [Example 7.81, 1-{[5-(3-methyl-5-{[4-(trifluoromethyl)pyrimidin-2-yl]amino}phenyl)pyridin-2-yl]amino}cyclopropanecarboxylic acid]",100 to 1000
7,"Cc1cc(Nc2nccc(C(F)(F)F)n2)cc(-c2ccc(N3CCC3C(=O)O)nc2)c1 (stereo not shown) [Example 7.82, 1-[5-(3-methyl-5-{[4-(trifluoromethyl)pyrimidin-2-yl]amino}phenyl)pyridin-2-yl]azetidine-2-carboxylic acid]",< 100
8,"Cc1cc(Nc2nccc(C(F)(F)F)n2)cc(-c2ccc(N3CCC[C@H]3C(=O)NCC(=O)O)nc2)c1 [Example 7.83, 1-[5-(3-methyl-5-{[4-(trifluoromethyl)pyrimidin-2-yl]amino}phenyl)pyridin-2-yl]-L-prolylglycine]",< 100
9,"Cc1cc(Nc2nccc(C(F)(F)F)n2)cc(-c2ccc(N3CCC[C@H]3C(=O)O)nc2)c1 [Example 7.84, 1-[5-(3-methyl-5-{[4-(trifluoromethyl)pyrimidin-2-yl]amino}phenyl)pyridin-2-yl]-L-proline]",< 100
10,"Cc1cc(Nc2nccc(C(F)(F)F)n2)cc(-c2ccc(N3CCCC[C@@H]3C(=O)O)nc2)c1 [Example 7.85, (2R)-1-[5-(3-methyl-5-{[4-(trifluoromethyl)pyrimidin-2-yl]amino}phenyl)pyridin-2-yl]piperidine-2-carboxylic acid]",< 100
11,"Cc1cc(Nc2nccc(C(F)(F)F)n2)cc(-c2ccc(N[C@@H](C)C(=O)O)nc2)c1 [Example 7.86, N-[5-(3-methyl-5-{[4-(trifluoromethyl)pyrimidin-2-yl]amino}phenyl)pyridin-2-yl]-L-alanine]",< 100
12,"Cc1cc(Nc2nccc(C(F)(F)F)n2)cc(-c2ccc(NCC(=O)O)nc2)c1 [Example 7.87, N-[5-(3-methyl-5-{[4-(trifluoromethyl)pyrimidin-2-yl]amino}phenyl)pyridin-2-yl]glycine]",< 100
13,"Cc1cc(Nc2nccc(C(F)(F)F)n2)cc(-c2ccc(NCCC(=O)O)nc2)c1 [Example 7.88, N-[5-(3-methyl-5-{[4-(trifluoromethyl)pyrimidin-2-yl]amino}phenyl)pyridin-2-yl]-beta-alanine]",< 100
14,"Cc1cc(Nc2nccc(C(F)(F)F)n2)cc(-c2ccc(N[C@H](C)C(=O)O)nc2)c1 [Example 7.89, N-[5-(3-methyl-5-{[4-(trifluoromethyl)pyrimidin-2-yl]amino}phenyl)pyridin-2-yl]-D-alanine]",< 100
15,"Cc1cc(Nc2nccc(C(F)(F)F)n2)cc(-c2ccc(N[C@@H](C(=O)O)C(C)C)nc2)c1 [Example 7.90, N-[5-(3-methyl-5-{[4-(trifluoromethyl)pyrimidin-2-yl]amino}phenyl)pyridin-2-yl]-D-valine]",< 100

# Results, then the molecule that gave them:
row,IC50 [nM],Structure (SMILES)
1,< 100,"Cc1cc(Nc2nccc(C(F)(F)F)n2)cc(-c2ccc(N[C@H](C(=O)O)C(C)C)nc2)c1 [Example 7.91, N-[5-(3-methyl-5-{[4-(trifluoromethyl)pyrimidin-2-yl]amino}phenyl)pyridin-2-yl]-L-valine]"
2,< 100,"Cc1cc(Nc2nccc(C(F)(F)F)n2)cc(-c2ccc(N[C@H](C(=O)O)[C@@H](C)O)nc2)c1 [Example 7.92, N-[5-(3-methyl-5-{[4-(trifluoromethyl)pyrimidin-2-yl]amino}phenyl)pyridin-2-yl]-L-threonine]"
3,< 100,"Cc1cc(Nc2nccc(C(F)(F)F)n2)cc(-c2ccc(N[C@H](CC(N)=O)C(=O)O)nc2)c1 [Example 7.93, N~2~-[5-(3-methyl-5-{[4-(trifluoromethyl)pyrimidin-2-yl]amino}phenyl)pyridin-2-yl]-D-asparagine]"
4,< 100,"Cc1cc(Nc2nccc(C(F)(F)F)n2)cc(-c2ccc(N[C@@H](CC(N)=O)C(=O)O)nc2)c1 [Example 7.94, N~2~-[5-(3-methyl-5-{[4-(trifluoromethyl)pyrimidin-2-yl]amino}phenyl)pyridin-2-yl]-L-asparagine]"
5,< 100,"CSCC[C@H](Nc1ccc(-c2cc(C)cc(Nc3nccc(C(F)(F)F)n3)c2)cn1)C(=O)O [Example 7.95, N-[5-(3-methyl-5-{[4-(trifluoromethyl)pyrimidin-2-yl]amino}phenyl)pyridin-2-yl]-L-methionine]"
6,< 100,"Cc1cc(Nc2nccc(C(F)(F)F)n2)cc(-c2ccc(N[C@H](Cc3ccccc3)C(=O)O)nc2)c1 [Example 7.96, N-[5-(3-methyl-5-{[4-(trifluoromethyl)pyrimidin-2-yl]amino}phenyl)pyridin-2-yl]-D-phenylalanine]"
7,< 100,"Cc1cc(Nc2nccc(C(F)(F)F)n2)cc(-c2ccc(N[C@@H](Cc3ccccc3)C(=O)O)nc2)c1 [Example 7.97, N-[5-(3-methyl-5-{[4-(trifluoromethyl)pyrimidin-2-yl]amino}phenyl)pyridin-2-yl]-L-phenylalanine]"
8,< 100,"Cc1cc(Nc2nccc(C(F)(F)F)n2)cc(-c2ccc(N[C@@H](Cc3ccc(O)cc3)C(=O)O)nc2)c1 [Example 7.98, N-[5-(3-methyl-5-{[4-(trifluoromethyl)pyrimidin-2-yl]amino}phenyl)pyridin-2-yl]-L-tyrosine]"
9,< 100,"Cc1cc(Nc2nccc(C(F)(F)F)n2)cc(-c2ccc(N[C@H](Cc3c[nH]c4ccccc34)C(=O)O)nc2)c1 [Example 7.99, N-[5-(3-methyl-5-{[4-(trifluoromethyl)pyrimidin-2-yl]amino}phenyl)pyridin-2-yl]-D-tryptophan]"
10,< 100,"Cc1cc(Nc2nccc(C(F)(F)F)n2)cc(-c2ccc(N[C@@H](Cc3c[nH]c4ccccc34)C(=O)O)nc2)c1 [Example 7.100, N-[5-(3-methyl-5-{[4-(trifluoromethyl)pyrimidin-2-yl]amino}phenyl)pyridin-2-yl]-L-tryptophan]"
11,< 100,"CC[C@@H](C)[C@@H](Nc1ccc(-c2cc(C)cc(Nc3nccc(C(F)(F)F)n3)c2)cn1)C(=O)O [Example 7.101, N-[5-(3-methyl-5-{[4-(trifluoromethyl)pyrimidin-2-yl]amino}phenyl)pyridin-2-yl]-D-isoleucine]"
12,< 100,"Cc1cc(Nc2nccc(C(F)(F)F)n2)cc(-c2ccc(NCCCC(=O)O)nc2)c1 [Example 7.102, 4-{[5-(3-methyl-5-{[4-(trifluoromethyl)pyrimidin-2-yl]amino}phenyl)pyridin-2-yl]amino}butanoic acid]"
13,< 100,"CC[C@H](Nc1ccc(-c2cc(C)cc(Nc3nccc(C(F)(F)F)n3)c2)cn1)C(=O)O [Example 7.103, (2S)-2-{[5-(3-methyl-5-{[4-(trifluoromethyl)pyrimidin-2-yl]amino}phenyl)pyridin-2-yl]amino}butanoic acid]"
14,< 100,"Cc1cc(Nc2nccc(C(F)(F)F)n2)cc(-c2ccc(N(C)[C@@H](C)C(=O)O)nc2)c1 [Example 7.104, N-methyl-N-[5-(3-methyl-5-{[4-(trifluoromethyl)pyrimidin-2-yl]amino}phenyl)pyridin-2-yl]-L-alanine]"
15,< 100,"Cc1cc(Nc2nccc(C(F)(F)F)n2)cc(-c2ccc(N3C[C@H](O)C[C@H]3C(=O)O)nc2)c1 [Example 7.105, (4R)-4-hydroxy-1-[5-(3-methyl-5-{[4-(trifluoromethyl)pyrimidin-2-yl]amino}phenyl)pyridin-2-yl]-L-proline]"
16,< 100,"Cc1cc(Nc2nccc(C(F)(F)F)n2)cc(-c2ccc(N[C@H](C(=O)O)C(C)(C)C)nc2)c1 [Example 7.106, 3-methyl-N-[5-(3-methyl-5-{[4-(trifluoromethyl)pyrimidin-2-yl]amino}phenyl)pyridin-2-yl]-L-valine]"
17,< 100,"CCC[C@@H](Nc1ccc(-c2cc(C)cc(Nc3nccc(C(F)(F)F)n3)c2)cn1)C(=O)O [Example 7.107, N-[5-(3-methyl-5-{[4-(trifluoromethyl)pyrimidin-2-yl]amino}phenyl)pyridin-2-yl]-D-norvaline]"
18,< 100,"Cc1cc(Nc2nccc(C(F)(F)F)n2)cc(-c2ccc(N[C@H](CO)C(=O)O)nc2)c1 [Example 7.108, N-[5-(3-methyl-5-{[4-(trifluoromethyl)pyrimidin-2-yl]amino}phenyl)pyridin-2-yl]-D-serine]"
19,< 100,"Cc1cc(Nc2nccc(C(F)(F)F)n2)cc(-c2ccc(N[C@@H](CO)C(=O)O)nc2)c1 [Example 7.109, N-[5-(3-methyl-5-{[4-(trifluoromethyl)pyrimidin-2-yl]amino}phenyl)pyridin-2-yl]-L-serine]"
